Results: patent US20160215348A1, “GENE EXPRESSION BIOMARKERS AND THEIR USE FOR DIAGNOSTIC AND PROGNOSTIC APPLICATION IN PATIENTS POTENTIALLY IN NEED OF HDAC INHIBITOR TREATMENT” (4SC AG, priority 2013, published 2016)

What was measured:
HDAC = test: Cellular HDAC enzyme activity in patients' whole blood (Boc-K(Ac)-AMC), inhibition vs pre-dose; type: in vivo, human; conditions: SAPHIRE
Description: Samples were obtained and gene expressions were determined with the methods as described herein below. Whole blood was incubated for 2 h at 37° C. with fluorescent HDAC substrate Boc-K(Ac)-AMC. After the lysis of erythrocytes remaining cells were stored at −80° C. HDAC activity was determined by fluorimetric analysis using a FLUOstar OPTIMA plate reader, where cells were incubated with a defined developer reagent (containing trypsin and lysis buffer) which leads to cell lysis and generation of a fluorophore from the deacetylated substrate. Finally inhibition of HDAC activity compared to pre-dose levels was calculated.
• Labelled 15 ml tubes (e.g. PP tubes, e.g. Falcon® tubes) • Labelled 2 ml tubes (e.g. PP tubes) • Erythrocyte Lysis buffer (Qiagen 79217) (stored at RT until use) • 40 mM Boc-K(Ac) AMC Stock in DMSO (Bachem: 1-1875) (stored at −80° C. until use)
• 1) Add 1 ml citrate blood into a 15 ml labelled tube. • 2) Add 5 μl 40 mM Boc-K(Ac) AMC to 1 ml citrate blood (final concentration: 200 μM Boc-K(Ac) AMC). • 3) Incubate for 2 h in an incubator (37° C.). • 4) Add 5 fold volume (5 ml) of 4° C. cold erythrocyte lysis buffer (EL buffer, Qiagen 79217). • 5) Mix briefly on a shaker. • 6) Incubate on ice for at least 15 min; mix two times in between on a plate shaker. • 7) Add 7 ml of 4° C. […]

[1] = Dose escalation 100-800 mg in cancer patients, dose-limiting toxicity; type: in vivo, human; conditions: highest dose group (800 mg); one patient within the first 3 patients
Description: HDAC enzyme activity, H4 Histone acetylation and gene expression of a group of genes were measured in the dose groups 100 mg, 200 mg, 400 mg, 600 mg and 800 mg. Each group consisted of 3 patients with different types of tumors. The highest dose group consisted of 6 patients due to a dose-limiting toxicity [DLT] […] The treatment cycles were as detailed for the SAPHIRE, SHELTER and SHORE clinical trials described herein below.

18S = test: Gene expression in HepG2 cancer cells (in vitro); type: cell-based, human; conditions: standardized to 0 h
Description: (§1) Hatched columns relate to blood, black columns relate to HepG2 cells, white boxes relate to HT 29 cells. Values are standardized to the value at 0 h.
(§2) Samples were obtained and gene expressions were determined with the methods as described herein below. The results are shown in below table 3 and FIGS. 2 and 3
(§3) The above values represent a mean value which was determined on the basis of 2 biological replicates, for each of which 3 technical replicates were prepared. […] The level of gene expression determined in peripheral blood samples can be correlated with a certain level of activity of HDAC in the diseased cells, e.g. by applying an appropriate conversion factor or conversion table, which may be determined for each specific disease, and/or patient group.
(§4) To determine RNA expression levels of ZFP64 in different cancer cell lines and PBMC, the cell membranes were chemically disrupted with a buffer containing guanidine isothiocycanate, which lyses the cells and supports the binding of RNA to a silica membrane and RNA was extracted via a filter-based spin column.
(§5) The High-Capacity cDNA Reverse Transcription Kit (Applied Biosystems) was used for reverse transcription of total RNA into single stranded cDNA with the aid of random hexamer primers according to the manufacturer's instructions. Briefly, for the reaction mix total RNA was mixed with random primers in excess, 4 mM dNTP Mix, 2.5 U/reaction, reverse transcriptase and nuclease free water. The reverse transcription took place in a thermal cycler under the following conditions: 25° C. for 10 min, 37° C. for 120 min, 85° C. for 5 min, followed by 4° C. for cooling down the reaction. The reverse transcription can be done in principle as well with other reverse transcriptases, primers and temperature protocols. Whenever possible, 250 ng total RNA were reverse transcribed if not available, lower amounts were used.
(§6) Custom TaqMan® Arrays (Applied Biosystems) in Format 16 were designed for the gene expression analysis of biomarkers of the present invention and housekeeping genes as outlined in table 4. These arrays allow for qPCR analysis of 8 samples per card. Of course, all reactions can be done as well by conventional qPCR analysis with specific primers.

CCDC43 = test: Gene expression in HepG2 cancer cells (in vitro); type: cell-based, human; conditions: standardized to 0 h
Description: as §1, §2, §3, §4, §5, §6

DPP3 = test: Gene expression in HepG2 cancer cells (in vitro); type: cell-based, human; conditions: standardized to 0 h
Description: as §1, §2, §3, §4, §5, §6

GAPDH = test: Gene expression in HepG2 cancer cells (in vitro); type: cell-based, human; conditions: standardized to 0 h
Description: as §1, §2, §3, §4, §5, §6

HIST2H4A/B = test: Gene expression in HepG2 cancer cells (in vitro); type: cell-based, human; conditions: standardized to 0 h
Description: as §1, §2, §3, §4, §5, §6

KDELC2 = test: Gene expression in HepG2 cancer cells (in vitro); type: cell-based, human; conditions: standardized to 0 h
Description: as §1, §2, §3, §4, §5, §6

MICALL1 = test: Gene expression in HepG2 cancer cells (in vitro); type: cell-based, human; conditions: standardized to 0 h
Description: as §1, §2, §3, §4, §5, §6

TBP = test: Gene expression in HepG2 cancer cells (in vitro); type: cell-based, human; conditions: standardized to 0 h
Description: as §1, §2, §3, §4, §5, §6

ZFP64 = test: Gene expression in HepG2 cancer cells (in vitro); type: cell-based, human; conditions: standardized to 0 h
Description: as §1, §2, §3, §4, §5, §6

Q: Which results are given for `CN(C)Cc1ccc(S(=O)(=O)n2ccc(/C=C/C(=O)NO)c2)cc1` [resminostat, (E)-3-(1-(4-((dimethylamino)methyl)phenylsulfonyl)-1H-pyrrol-3-yl)-N-hydroxyacrylamide]?
A: Inhibition of HDAC enzyme activity (median) (HDAC; 2 h post-dose, both dose groups (600 mg, 800 mg), vs pre-dose): ≤ 93%; Inhibition of HDAC enzyme activity (HDAC; day 8, 800 mg dose group, wide range of individual values): up to 41%; Dose-limiting toxicity [DLT] [1]: fatigue and nausea grade 3; Expression level, 18s (housekeeping gene) (18S; 2 h): 0.91; Expression level, 18s (housekeeping gene) (18S; 5 h): 0.87; Expression level, CCDC43 (CCDC43; 2 h): 0.70; Expression level, CCDC43 (CCDC43; 5 h): 0.46; Expression level, DPP3 (DPP3; 2 h): 0.86; Expression level, DPP3 (DPP3; 5 h): 0.72; Expression level, GAPDH (housekeeping gene) (GAPDH; 2 h): 0.96; Expression level, GAPDH (housekeeping gene) (GAPDH; 5 h): 1.03; Expression level, HIST2H4A/B (HIST2H4A/B; 2 h): 0.88; Expression level, HIST2H4A/B (HIST2H4A/B; 5 h): 1.17; Expression level, KDELC2 (KDELC2; 2 h): 0.84; Expression level, KDELC2 (KDELC2; 5 h): 0.54; Expression level, MICALL1 (MICALL1; 2 h): 0.85; Expression level, MICALL1 (MICALL1; 5 h): 0.50; Expression level, TBP (housekeeping gene) (TBP; 2 h): 1.15; Expression level, TBP (housekeeping gene) (TBP; 5 h): 1.12; Expression level, ZFP64 (ZFP64; 2 h): 0.46; Expression level, ZFP64 (ZFP64; 5 h): 0.19
